Laboratory results published in patent US10857236B2, “Sustained release nanocomposite, a process for producing the same and use thereof” (SZEGEDI TUDOMÁNYEGYETEM, priority 2015, dated 2020).
Blank lines part the entries; values can stand above or below the compound they belong to.

What was measured:
[1] = stability study of KYNA in MQ with and without 150 mM NaCl and in buffer
Description: New types of nanocomposites have been prepared within physiological conditions, in the nano-size range for the purpose of crossing the pharmaceutically active ingredients through the blood-brain barrier. […] The amount of the material constituting the composites, than the conditions of the preparation were determined. Stability studies were performed for the active ingredients by ensuring various conditions (pH=3 to 8 in physiological solution and without said physiological solution, in both phosphate and HEPES buffers). […]
The release tests were made in case of KYNA in PBS buffer at pH=7.4. (physiological solution). […]

[2] = in vitro drug release in Franz cell (vertical diffusion cell), kinetic models; type: physicochemical
Description: FIG. 7: A schematic figure of the Franz-cell (vertical diffusion cell) with which the in vitro drug release experiments were carried out. […] The active ingredient release tests were made at two temperatures: at 25 and 37.5° C. (FIGS. 7 and 8).

[3] = KYNA permeability in in vitro blood-brain barrier model; type: in vitro ADME, rat; settings: Wistar, rat, 20 μM KYNA final concentration, corrected for empty filters, read-out: permeability coefficient Pe
Description: (§1) The permeability of KYNA through the blood-brain barrier from BSA/KYNA/PAH nanocapsules was determined by means of an in vitro blood-brain barrier model. The description of the model is the following: microvessel rat brain endothelial cells were isolated from 2 to 3 weeks old Wistar animals by means of a method described earlier (Wilhelm és munkatársai, 2011). After the removal of the meninges, the brain tissue was dissectioned to small pieces, then it was digested by type 2 collagenase and collagenase/dispase, finally it was centrifuged on percoll gradient. The microvessel fragments were plated on collagenIV/fibronectin-coated Petri dishes and were cultured in DMEM/F12 in the presence of plasma serum and growth factors. […]
(§2) From these samples the concentration of KYNA was determined using an Agilent 1100 HPLC-MS system (Agilent Technologies, Santa Clara, Calif., USA).
(§3) To calculate the permeability coefficient the following formulae were applied: PappdQ/(dT×A×C0), wherein dQ stands for the crossed amount of the material, dT stands for the incubation period of time (1 hour), A stands for the surface of the filter and C0 stands for the starting concentration (20 μM). The values thus calculated were compared to the values measured on empty (not containing cells) filters according to the following method: […]).

[4] = test system: somatosensory evoked potentials (SEPs); experiment: in vivo amplitudes of somatosensory evoked potentials after peripheral administration; set-up: species or system male Wistar rats; settings: intraperitoneal administration, 300 mg/kg, n=5
From the text: The preparation of the corresponding composite (FIG. 1) was accomplished with the following parameters. […] At a neutral pH the compact structure of the protein offers an opportunity to enclose large amount of kynurenic acid. In the “heart shaped” conformation of the BSA, the hydrophobic parts directed inside the conformation can form hydrogen-bridge, hydrophobic, furthermore ππ interactions with the KYNA molecule. […] After the in vitro drug release experiments the KYNA permeability was investigated with the help of an in vitro blood-brain barrier model. […] The animal experiments were performed on male Wistar rats (300 g, n=30). During the tests the effect of the peripherally administered KYNA was investigated in the central nervous system.

[5] = test system: microvessel rat brain endothelial cells; experiment: KYNA permeability in in vitro blood-brain barrier model; type: in vitro ADME; settings: 20 μM KYNA final concentration, 1 hour, corrected for empty filters
Description: as §1, §2, §3

[6] = DOPA containing composites, 25° C.
[7] = DOPA containing composites, 37.5° C.
[8] = KYNA containing composites, 25° C.
[9] = KYNA containing composites, 37.5° C.
[10] = IBU containing composites, 25° C.
[11] = IBU containing composites, 37.5° C.

Structure (SMILES): CC(C)Cc1ccc(C(C)C(=O)O)cc1 (stereo not shown) [IBU, ibuprofen]
- Release rate, depending on the concentration, first-order kd [2, 10]: 0.0064 s⁻¹
- Release rate, diffusion controlled, Higuchi kd [2, 10]: 5.6 * 10^−0 s^−1/2
- Release rate, not depending on the concentration, zero-order kd [2, 10]: 0.5 s⁻¹
- Release rate, depending on the concentration, first-order kd [2, 11]: 0.011 s⁻¹
- Release rate, diffusion controlled, Higuchi kd [2, 11]: 8.7 * 10^−0 s^−1/2
- Release rate, not depending on the concentration, zero-order kd [2, 11]: 0.77 s⁻¹

Structure (SMILES): Nc1ccccc1C(=O)C[C@H](N)C(=O)O [L-KYN, L-kynurenin]
- change of amplitude of somatosensory evoked potentials [4]: no significant change

Now from value to compound, other results behind:

- stability of KYNA ([1]; HEPES (150 mM NaCl), 0 h): stable
- stability of KYNA ([1]; HEPES (150 mM NaCl), 24 h): unstable
- stability of KYNA ([1]; HEPES (150 mM NaCl), 48 h): unstable
- stability of KYNA ([1]; HEPES (150 mM NaCl), 72 h): unstable
- stability of KYNA ([1]; HEPES (150 mM NaCl), 96 h): unstable
- demonstrated stability until ([1]; PBS buffer at pH=7.4 (physiological solution), release tests of IBU): 96 h
- demonstrated stability until ([1]; PBS buffer at pH=7.4 (physiological solution), release tests of KYNA): 72 h
- degrading of KYNA as a result of the buffers ([1]; in buffer): already starts in the first hours
- stability of KYNA ([1]; pH 3 (MQ + 150 mM NaCl), 0 h): stable
- stability of KYNA ([1]; pH 3 (MQ + 150 mM NaCl), 24 h): stable
- stability of KYNA ([1]; pH 3 (MQ + 150 mM NaCl), 48 h): stable
- stability of KYNA ([1]; pH 3 (MQ + 150 mM NaCl), 72 h): stable
- stability of KYNA ([1]; pH 3 (MQ + 150 mM NaCl), 96 h): unstable
- stability of KYNA ([1]; pH 3 (MQ), 0 h): stable
- stability of KYNA ([1]; pH 3 (MQ), 24 h): stable
- stability of KYNA ([1]; pH 3 (MQ), 48 h): stable
- stability of KYNA ([1]; pH 3 (MQ), 72 h): stable
- stability of KYNA ([1]; pH 3 (MQ), 96 h): unstable
- stability of KYNA ([1]; pH 4 (MQ + 150 mM NaCl), 0 h): stable
- stability of KYNA ([1]; pH 4 (MQ + 150 mM NaCl), 24 h): stable
- stability of KYNA ([1]; pH 4 (MQ + 150 mM NaCl), 48 h): stable
- stability of KYNA ([1]; pH 4 (MQ + 150 mM NaCl), 72 h): stable
- stability of KYNA ([1]; pH 4 (MQ + 150 mM NaCl), 96 h): unstable
- stability of KYNA ([1]; pH 4 (MQ), 0 h): stable
- stability of KYNA ([1]; pH 4 (MQ), 24 h): stable
- stability of KYNA ([1]; pH 4 (MQ), 48 h): stable
- stability of KYNA ([1]; pH 4 (MQ), 72 h): unstable
- stability of KYNA ([1]; pH 4 (MQ), 96 h): unstable
- stability of KYNA ([1]; pH 5 (MQ + 150 mM NaCl), 0 h): stable
- stability of KYNA ([1]; pH 5 (MQ + 150 mM NaCl), 24 h): stable
- stability of KYNA ([1]; pH 5 (MQ + 150 mM NaCl), 48 h): unstable
- stability of KYNA ([1]; pH 5 (MQ + 150 mM NaCl), 72 h): unstable
- stability of KYNA ([1]; pH 5 (MQ + 150 mM NaCl), 96 h): unstable
- stability of KYNA ([1]; pH 5 (MQ), 0 h): stable
- stability of KYNA ([1]; pH 5 (MQ), 24 h): stable
- stability of KYNA ([1]; pH 5 (MQ), 48 h): stable
- stability of KYNA ([1]; pH 5 (MQ), 72 h): stable
- stability of KYNA ([1]; pH 5 (MQ), 96 h): unstable
- stability of KYNA ([1]; pH 6 (MQ + 150 mM NaCl), 0 h): stable
- stability of KYNA ([1]; pH 6 (MQ + 150 mM NaCl), 24 h): stable
- stability of KYNA ([1]; pH 6 (MQ + 150 mM NaCl), 48 h): stable
- stability of KYNA ([1]; pH 6 (MQ + 150 mM NaCl), 72 h): stable
- stability of KYNA ([1]; pH 6 (MQ + 150 mM NaCl), 96 h): unstable
- stability of KYNA ([1]; pH 6 (MQ), 0 h): stable
- stability of KYNA ([1]; pH 6 (MQ), 24 h): stable
- stability of KYNA ([1]; pH 6 (MQ), 48 h): stable
- stability of KYNA ([1]; pH 6 (MQ), 72 h): unstable
- stability of KYNA ([1]; pH 6 (MQ), 96 h): unstable
- stability of KYNA ([1]; pH 7 (MQ + 150 mM NaCl), 0 h): stable
- stability of KYNA ([1]; pH 7 (MQ + 150 mM NaCl), 24 h): stable
- stability of KYNA ([1]; pH 7 (MQ + 150 mM NaCl), 48 h): stable
- stability of KYNA ([1]; pH 7 (MQ + 150 mM NaCl), 72 h): stable
- stability of KYNA ([1]; pH 7 (MQ + 150 mM NaCl), 96 h): unstable
- stability of KYNA ([1]; pH 7 (MQ), 0 h): stable
- stability of KYNA ([1]; pH 7 (MQ), 24 h): stable
- stability of KYNA ([1]; pH 7 (MQ), 48 h): stable
- stability of KYNA ([1]; pH 7 (MQ), 72 h): unstable
- stability of KYNA ([1]; pH 7 (MQ), 96 h): unstable
- stability of KYNA ([1]; pH 8 (MQ + 150 mM NaCl), 0 h): stable
- stability of KYNA ([1]; pH 8 (MQ + 150 mM NaCl), 24 h): stable
- stability of KYNA ([1]; pH 8 (MQ + 150 mM NaCl), 48 h): stable
- stability of KYNA ([1]; pH 8 (MQ + 150 mM NaCl), 72 h): stable
- stability of KYNA ([1]; pH 8 (MQ + 150 mM NaCl), 96 h): unstable
- stability of KYNA ([1]; pH 8 (MQ), 0 h): stable
- stability of KYNA ([1]; pH 8 (MQ), 24 h): stable
- stability of KYNA ([1]; pH 8 (MQ), 48 h): stable
- stability of KYNA ([1]; pH 8 (MQ), 72 h): stable
- stability of KYNA ([1]; pH 8 (MQ), 96 h): unstable
- Papp at 1 h, 20 µM [3]: 37.1 nm/s
Structure (SMILES): O=C(O)c1cc(=O)c2ccccc2[nH]1 [KYNA, kynurenic acid]
- Release rate, depending on the concentration, first-order kd [2, 6]: 0.0079 s⁻¹
- Release rate, diffusion controlled, Higuchi kd [2, 6]: 6.9 * 10^−0 s^−1/2
- Release rate, not depending on the concentration, zero-order kd [2, 6]: 0.63 s⁻¹
- Release rate, depending on the concentration, first-order kd [2, 7]: 0.0098 s⁻¹
- Release rate, diffusion controlled, Higuchi kd [2, 7]: 7.0 * 10^−0 s^−1/2
- Release rate, not depending on the concentration, zero-order kd [2, 7]: 0.0062 s⁻¹
- Release rate, depending on the concentration, first-order kd [2, 8]: 0.0015 s⁻¹
- Release rate, diffusion controlled, Higuchi kd [2, 8]: 4.9 * 10^−3 s^−1/2
- Release rate, not depending on the concentration, zero-order kd [2, 8]: 0.0004 s⁻¹
- Release rate, diffusion controlled, Higuchi kd [2, 9]: 1.2 * 10^−2 s^−1/2
- Release rate, not depending on the concentration, zero-order kd [2, 9]: 0.001 s⁻¹
- kinetic model that characterizes / best fits the release ([2]; in vitro release profiles): Higuchi model
- change of amplitude of somatosensory evoked potentials [4]: no significant change

- permeability coefficient Pe [5]: 2.96*10^−6 cm/s
Structure (SMILES): O=C([O-])c1ccccc1-c1c2ccc(=O)cc-2oc2cc([O-])ccc12.[Na+].[Na+] [Na-fluoresceine]

- demonstrated stability until ([1]; pH 7.4): 72 h
Structure (SMILES): NCCc1ccc(O)c(O)c1 [DOPA, dopamine]
